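Method: 48-hour compound exposure of cells in 96-well plates, five concentrations, linear interpolation of endpoints. Here, GI50 denotes the concentration required for 50% inhibition of growth. Definition used: TGI = concentration required for complete inhibition of growth.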
Key:
Assay in all cases: DTP human tumour cell line panel, 48 h
786-0 renal = system: 786-0 renal
A498 renal = system: A498 renal
A549 NSCLC = system: A549 NSCLC
ACHN renal = system: ACHN renal
BT-549 breast = system: BT-549 breast
CAKI-1 renal = system: CAKI-1 renal
CCRF-CEM leukemia = system: CCRF-CEM leukemia
COLO 205 colon = system: COLO 205 colon
DU-145 prostate = system: DU-145 prostate
EKVX NSCLC = system: EKVX NSCLC
HCC-2998 colon = system: HCC-2998 colon
HCT-116 colon = system: HCT-116 colon
HCT-15 colon = system: HCT-15 colon
HL-60(TB) leukemia = system: HL-60(TB) leukemia
HOP-62 NSCLC = system: HOP-62 NSCLC
HOP-92 NSCLC = system: HOP-92 NSCLC
HS 578T breast = system: HS 578T breast
HT29 colon = system: HT29 colon
IGROV1 ovarian = system: IGROV1 ovarian
K-562 leukemia = system: K-562 leukemia
KM12 colon = system: KM12 colon
M14 melanoma = system: M14 melanoma
MALME-3M melanoma = system: MALME-3M melanoma
MCF7 breast = system: MCF7 breast
MDA-MB-435 = system: MDA-MB-435
MOLT-4 leukemia = system: MOLT-4 leukemia
NCI-H226 lung = system: NCI-H226 lung

SMILES: Cc1ccc2c(n1)C(=O)C(Cl)=C(Nc1cccc(C)c1C)C2=O
- GI50 (786-0 renal): 1.9 µM
- TGI (786-0 renal): 4.08 µM
- GI50 (A498 renal): 2.23 µM
- TGI (A498 renal): 5.19 µM
- GI50 (A549 NSCLC): 2.15 µM
- TGI (A549 NSCLC): 5 µM
- GI50 (ACHN renal): 1.62 µM
- TGI (ACHN renal): 3.19 µM
- GI50 (BT-549 breast): 1.58 µM
- TGI (BT-549 breast): 3.04 µM
- GI50 (CAKI-1 renal): 1.57 µM
- TGI (CAKI-1 renal): 3.12 µM
- GI50 (CCRF-CEM leukemia): 1.25 µM
- TGI (CCRF-CEM leukemia): 5.22 µM
- GI50 (COLO 205 colon): 2.03 µM
- TGI (COLO 205 colon): 4.72 µM
- GI50 (DU-145 prostate): 1.65 µM
- TGI (DU-145 prostate): 3.2 µM
- GI50 (EKVX NSCLC): 1.58 µM
- TGI (EKVX NSCLC): 3.73 µM
- GI50 (HCC-2998 colon): 1.92 µM
- TGI (HCC-2998 colon): 3.77 µM
- GI50 (HCT-116 colon): 0.871 µM
- TGI (HCT-116 colon): 2.6 µM
- GI50 (HCT-15 colon): 1.13 µM
- TGI (HCT-15 colon): 2.73 µM
- GI50 (HL-60(TB) leukemia): 1.15 µM
- TGI (HL-60(TB) leukemia): 3.49 µM
- GI50 (HOP-62 NSCLC): 1.55 µM
- TGI (HOP-62 NSCLC): 2.96 µM
- GI50 (HOP-92 NSCLC): 1.98 µM
- TGI (HOP-92 NSCLC): 3.95 µM
- GI50 (HS 578T breast): 2.21 µM
- TGI (HS 578T breast): 6.23 µM
- GI50 (HT29 colon): 2.68 µM
- TGI (HT29 colon): 7.16 µM
- GI50 (IGROV1 ovarian): 1.68 µM
- TGI (IGROV1 ovarian): 3.72 µM
- GI50 (K-562 leukemia): 0.77 µM
- TGI (K-562 leukemia): 3.58 µM
- GI50 (KM12 colon): 1.95 µM
- TGI (KM12 colon): 4.54 µM
- GI50 (M14 melanoma): 1.61 µM
- TGI (M14 melanoma): 3.19 µM
- GI50 (MALME-3M melanoma): 1.83 µM
- TGI (MALME-3M melanoma): 3.3 µM
- GI50 (MCF7 breast): 1.16 µM
- TGI (MCF7 breast): 2.95 µM
- GI50 (MDA-MB-435): 1.89 µM
- TGI (MDA-MB-435): 3.72 µM
- GI50 (MOLT-4 leukemia): 0.827 µM
- TGI (MOLT-4 leukemia): 3.35 µM
- GI50 (NCI-H226 lung): 1.94 µM

Source: PubChem BioAssay (NCI)
